Data taken from patent publication US5001129A, “Oxazoloquinoline compounds and therapeutic application thereof” (Delalande S.A., priority 1987, dated 1991).

Columns and labels:
monoamine oxydase = target: T1, monoamine oxydase (Rattus norvegicus, UniProt P21396); experiment: inhibition of the activity of the monoamine oxydase in vitro on homogenates of rat brain (serotonin as substrate); type: biochemical; conditions: serotonin as substrate at 480 μM, read-out: Test in vitro IC50
T1 construct: in vitro on homogenates of rat brain; from tissue; host or cells: rat brain homogenate
T1 sequence (P21396 1-526): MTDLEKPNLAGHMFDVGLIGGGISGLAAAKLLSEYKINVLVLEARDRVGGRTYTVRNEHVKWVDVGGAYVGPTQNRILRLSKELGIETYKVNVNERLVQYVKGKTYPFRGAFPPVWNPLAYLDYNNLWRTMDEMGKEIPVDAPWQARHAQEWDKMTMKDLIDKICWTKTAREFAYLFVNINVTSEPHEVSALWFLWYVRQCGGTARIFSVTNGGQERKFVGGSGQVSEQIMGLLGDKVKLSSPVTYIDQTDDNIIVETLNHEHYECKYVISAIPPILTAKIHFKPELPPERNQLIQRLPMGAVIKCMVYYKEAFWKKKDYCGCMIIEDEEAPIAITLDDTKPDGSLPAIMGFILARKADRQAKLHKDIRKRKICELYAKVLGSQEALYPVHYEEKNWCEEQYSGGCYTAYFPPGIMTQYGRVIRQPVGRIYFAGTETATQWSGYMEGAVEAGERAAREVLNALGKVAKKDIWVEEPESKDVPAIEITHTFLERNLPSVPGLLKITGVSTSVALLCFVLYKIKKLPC
Experimental: in vitro on homogenates of rat brain, by measuring the concentration of the product inhibiting by 50% (IC50) the activity of the monoamine oxydase utilising serotonin as substrate at 480 μM, according to the method described by M. STROLIN BENEDETTI. T. BOUCHER and C. J. FOWLER in Naunyn--Schmiedebergs Archiv. of Pharm. (1983) 323, 315-320;

[1] = test system: effects of serotonin (precursor hydroxy-5 tryptophan, 5-HTP); experiment: potentiation of hydroxy-5 tryptophan (5-HTP): generalised trembling or stereotypies in rats; conditions: Rattus norvegicus, oral, 1 h before 120 mg/kg i.p. 5-HTP, generalised trembling or stereotypies in 50% of the animals, read-out: Test in vivo ED50
Experimental: in vivo by determining in rats the dose of the product which, administered orally, causes in 50% of the animals (ED50) the appearance of generalised trembling or stereotypies (finger-tapping as on a piano, movements of the head) following the intraperitoneal administration 1 h after the first treatment of a dose of 120 mg/kg of hydroxy-5 tryptophan (5-HTP) [M. JALFRE, B. BUCHER, A. COSTON, G. MOCQUET, R. D. PORSOLT, Arch. Int. Pharmacodyn., (1982), 259, 194-221].

LD50 in mice, oral = conditions: mouse, in vivo

Row | Structure (SMILES) | IC50 (monoamine oxydase) [µM] | ED50 [1] [mg/kg] | LD50 (LD50 in mice, oral) [mg/kg]
1 | COc1ccc2c(c1)CC[C@H]1[C@H](CO)OC(=O)N21 (relative stereo) [MD 280387] | 0.075 |  | 
2 | COc1ccc2c(c1)CC[C@H]1[C@H](CN)OC(=O)N21 (relative stereo) [MD 370025] | 1.6 |  | 
3 | O=C1O[C@H](CO)[C@@H]2CCc3ccccc3N12 (relative stereo) [MD 200504, cis hydroxymethyl-3 tetrahydro-3,3a,4,5 1H-oxazolo [3,4-a] quinoline-one-1] |  | 7.8 | 
4 | COC[C@@H]1OC(=O)N2c3ccc(OC)cc3CC[C@@H]12 (relative stereo) [MD 280449] | 0.006 |  | 1120
5 | CNC[C@@H]1OC(=O)N2c3ccc(OC)cc3CC[C@@H]12 (relative stereo) [MD 370027] |  | 5.8 | 
6 | O=C1O[C@H](CO)[C@@H]2CCc3ccc(Cl)cc3N12 (relative stereo) [MD 370336] | 0.08 |  | 
7 | CNC[C@H]1OC(=O)N2c3ccc(OC)cc3CC[C@@H]12 (relative stereo) [MD 370026] |  |  | 263
8 | COC[C@H]1OC(=O)N2c3ccc(OC)cc3CC[C@@H]12 (relative stereo) [MD 280448] | 0.009 | 1.8 | 
9 | O=C1O[C@@H](CO)[C@@H]2CCc3ccc(Cl)cc3N12 (relative stereo) [MD 370335] | 0.097 |  | 

Further lines, with some results ahead:

Row | IC50 (monoamine oxydase) [µM] | Structure (SMILES) | ED50 [1] [mg/kg] | LD50 (LD50 in mice, oral) [mg/kg]
10 | 0.5 | C=C[C@H]1OC(=O)N2c3ccccc3CC[C@@H]12 (relative stereo) [MD 200502, ethenyl-3 tetrahydro-3,3a,4,5 1H-oxazolo [3,4-a] quinoline-one-1] |  | 
11 | 0.057 | C=C[C@@H]1OC(=O)N2c3ccccc3CC[C@@H]12 (relative stereo) [MD 200503, ethenyl-3 tetrahydro-3,3a,4,5 1H-oxazolo [3,4-a] quinoline-one-1] | 20 | 
12 | 0.09 | COC[C@H]1OC(=O)N2c3ccccc3CC[C@@H]12 (relative stereo) [MD 200682, cis methoxymethyl-3 tetrahydro-3,3a,4,5 1H oxazolo [3,4-a] quinoline-one-1] | 2.3 | 
13 | 0.019 | COc1ccc2c(c1)CC[C@H]1[C@@H](CO)OC(=O)N21 (relative stereo) [MD 280386, cis hydroxymethyl-3 methoxy-7 tetrahydro-3,3a,4,5 1H-oxazino [3, 4a] quinoline-one-1] |  | 
14 | 1 | COc1ccc2c(c1)CC[C@H]1[C@@H](CN)OC(=O)N21 (relative stereo) [MD 370024, cis aminomethyl-3 methoxy-7 tetrahydro-3,3a,4,5 1H-oxazolo [3,4-a] quinoline-one-2] |  | 
15 | 8.7 | O=C1O[C@@H](CO)[C@@H]2Cc3ccccc3N12 (relative stereo) [MD 200718] |  | 
16 | 1.4 | C[C@@H]1OC(=O)N2c3ccccc3CC[C@@H]12 (relative stereo) [MD 280430, trans methyl-3 tetrahydro-3,3a,4,5 1 H-oxazolo [3,4-a] quinoline-one-1] | 105 | 
17 | 0.029 | C=C[C@@H]1OC(=O)N2c3ccc(OC)cc3CC[C@@H]12 (relative stereo) [MD 280404, ethenyl-3 methoxy-7 tetrahydro-3,3a, 4,5 1H-oxazolo [3.4-a] quinoline-one-1] | 11 | 
18 | 2.8 | O=C1O[C@H](CO)[C@@H]2Cc3ccccc3N12 (relative stereo) [MD 200602] |  | 
